According to ChEMBL document CHEMBL1268861, “Isolation and characterization of diastereomers of discorhabdins H and K and assignment of absolute configuration to discorhabdins D, N, Q, S, T, and U” (J Nat Prod, 2010):

Tested on: P388
Test: Cytotoxicity against mouse P388 cells
Type: functional, cell-based

Question: Cn1cnc(S[C@@H]2[C@@H]3C(=O)C=C4S[C@@H]5C[C@@]42C2=C(N5)C(=O)c4[nH]cc5c4C2=[N+]3CC5)c1C[C@H](N)C(=O)O [DISCORHABDIN H2] was tested. Which IC50 did it give?
Answer: > 8.2 µM

Question: Cn1cnc(S[C@H]2[C@H]3C(=O)C=C4S[C@H]5C[C@]42C2=C(N5)C(=O)c4[nH]cc5c4C2=[N+]3CC5)c1C[C@H](N)C(=O)O [DISCORHABDIN H] was tested. Which IC50 did it give?
Answer: > 8.2 µM

Question: Which IC50 does the source give for Cn1cnc(SC2=CC(=O)C=C3S[C@@H]4C[C@]23C2=C(N4)C(=O)c3[nH]cc4c3C2=NCC4)c1C[C@H](N)C(=O)O [DISCORHABDIN K2] here?
Answer: > 8.2 µM

Question: How did the IC50 turn out when Cn1cnc(SC2=CC(=O)C=C3S[C@H]4C[C@@]23C2=C(N4)C(=O)c3[nH]cc4c3C2=NCC4)c1C[C@H](N)C(=O)O [DISCORHABDIN K] was run?
Answer: > 8.2 µM
